Results from patent EP1143981B1, “USE OF N-GLYCOLNEURAMINIC ACID AND ITS DERIVATIVES FOR THE MANUFACTURE OF A MEDICAMENT FOR THE TREATMENT OF HIV INFECTIONS” (Glukor, Inc., priority 1998, dated 2000).

Tests used:
Assay type in all cases: cell-based
[1] = system: HIV-1III B; assay: HIV-1 P24 output, test solution mixed with virus, PBMCs infected overnight; settings: Dilution 1:10 of 5mg/ml solution, day 9
[2] = system: HIV-1 IIIB; assay: HIV-1 P24 output, repeat with stored solutions, 3 hours infection; settings: day 6
Procedure: The test was repeated using test solutions stored at 4°C. In this experiment, the dilutions were mixed with HIV-1 IIIB virus at the time of infecting the activated human PBMCs for 3 hours. The cells then were washed and incubated in triplicate wells (1x10^3 cells/well) in the presence of the indicated dilution of the test solution. One half media changes included the test solution dilutions. Conditioned media were tested for P24 output by the antigen capture assay on day 6. Results are shown in Table 10 and are presented as the inhibition % of control (no carbohydrate added).

[3] = system: HIV-1III B; assay: HIV-1 P24 output, test solution mixed with virus, PBMCs infected overnight; settings: day 9
Procedure: Example 4-Specificity of Inhibition: Research grade purified d-Galactose (CAT# g404, lot 117H00431, FW 180.2, Sigma Chemical Co., St. Louis, MO) was dissolved in saline at a concentration of 5mg/ml. The solution was allowed to stand at room temperature for 15 minutes and mixed by vortex until the galactose was completely dissolved. The galactose solution was divided into two equal aliquots. Stabilizing solution (0.1 ml) was added to one aliquot, then vortexed and incubated at room temperature for 30 minutes. After mixing again, the mixture was centrifuged at 1500g for 30 minutes and the supernatant was filtered through a 0.2µm filter and transferred to a sterile 15 ml tube. The solution was sterilized by gamma radiation (2.5 mega RADs) with 15 minutes exposure. The aliquot without the stabilizing solution was labeled "1A" and the aliquot containing the stabilized solution was labeled "1B". […] Each of the test solutions were diluted 1:20 1:40,1:80, and 1:160 in saline. Control solutions were water.
One ml of each of the dilutions of the test solution or control was mixed with an equal volume of HIV-1III B (~50 TCID50 /2x10^5 cells) to infect activated human PBMCs overnight at 37°C (3x10^5 cells/dilution). HIV-1III B is a laboratory-adapted strain. The cells then were washed and placed in culture media containing the indicated dilution of the test solution in triplicate wells (1x10^3 cells per well, ½ medium changes with media containing the indicated dilutions of test solution were made at ~3 day intervals). The conditioned media were tested for HIV-1 P24 output on day 9 using the DuPont P24 assay kit. The control was infected PBMCs in the absence of test solutions. Results are shown in Table 9 and are measured as the Inhibition% of the control. […]

[4] = system: HIV-1 IIIB; assay: HIV-1 P24 output, test solutions added post infection
Procedure: In addition, a similar experiment was performed, except that test solutions were added post infection, at the time of plating into the triplicate wells.

[5] = system: X4 strain LAI/IIIB; assay: RT activity in infected PBMCs over 20 days post-infection
Procedure: Reverse Transcriptase Activity Assay: A microtiter based reverse transcriptase (RT) reaction was utilized as described by Buckheit et al., (1991), AIDS Research and Human Retroviruses, 7:295-302. Tritiated thymidine triphosphate (^3H-TTP) was suspended in distilled H2O at 5 Ci/mL. Poly rA and oligo dT were prepared as a stock solution which was kept at -20°C. RT reaction buffer was prepared fresh on a daily basis and contained 125 µL 1M EGTA, 125 µL dH2O, 110 µL 10% SDS, 50 µL 1M Tris (pH 7.4), 50 µL 1M DTT, and 40 µL 1M MgCl2. These three solutions were mixed together in a ratio of 2 parts ^3H-TTP, 1 part poly rA:oligo dT, and 1 part reaction buffer. Ten microliters of this reaction mixture were placed in a round bottom microtiter plate and 15 µL of virus containing supernatant were added and mixed. The plate was incubated at 37°C in a water bath with a solid support to prevent submersion of the plate and incubated for 60 minutes. After the incubation period, the reaction volume was spotted onto pieces of DE81 paper, washed 5 times for 5 minutes each in a 5% sodium phosphate buffer, 2 times for 1 minute each in distilled water, 2 times for 1 minute each in 70% ethanol, and then dried. Opti-Fluor-O (Packard) was added to each sample and incorporated radioactivity was quantified utilizing a Wallac 1450 MicroBeta Plus liquid scintillation counter. Plates were screened with tetrazolium dye staining as described above.
PBMCs were treated with dilutions of LUKOR of 1:4, 1:20, 1:100, 1:500, or 1:2500, or concentrations ofN-glycolylneuraminic acid or N-acetylneuraminic acid of 0.4, 1.2, 3.6, 11, or 33µg/ml. No carbohydrates were added to the control sample. RT activity was determined at 3, 6, 9,13, 17, and 20 days post-infection (PI) with X4 strain LAI/IIIB.

[6] = Dilution 1:10, solutions stored at 4°C
[7] = Dilution 1:20, solutions stored at 4°C
[8] = Dilution 1:40, solutions stored at 4°C
[9] = Dilution 1:80, solutions stored at 4°C
[10] = Dilution 1:160, solutions stored at 4°C
[11] = Dilution 1:10, added post infection
[12] = Dilution 1:20, added post infection
[13] = Dilution 1:20, repeat with further dilutions (Table 12)
[14] = Dilution 1:40, added post infection
[15] = Dilution 1:80, added post infection
[16] = Dilution 1:100, repeat with further dilutions (Table 12)
[17] = Dilution 1:160, added post infection
[18] = Dilution 1:1000, repeat with further dilutions (Table 12)

**Q.** With `O=C(CO)N[C@H]1[C@H]([C@H](O)[C@H](O)CO)OC(O)(C(=O)O)C[C@@H]1O` (single isomer, unassigned) [2A, N-glycolylneuraminic acid] as the compound, how does the inhibition at 5000 µg/mL (stock) ([1]; Human immunodeficiency virus 1, PBMC, 216 h, read-out: P24 output, Inhibition% of the control) read?
**A.** Its inhibition at 5000 µg/mL (stock) is 94%.

**Q.** And the “Inhibition % of Control” value [2, 6]?
**A.** Its value is 96%.

**Q.** And the “Inhibition % of Control” value [2, 7]?
**A.** Its value is 78%.

**Q.** What about the “Inhibition % of Control” value [2, 8] of the same compound?
**A.** Its value is 62%.

**Q.** What about the “Inhibition % of Control” value [2, 9] of the same compound?
**A.** Its value is 47%.

**Q.** And the “Inhibition % of Control” value [2, 10]?
**A.** Its value is 17%.

**Q.** What about the “P24 output, Inhibition% of the control” value ([3]; Dilution 1:20) of the same compound?
**A.** The value was 78%.

**Q.** And the “P24 output, Inhibition% of the control” value ([3]; Dilution 1:40)?
**A.** The value was 66%.

**Q.** What about the “Inhibition % of Control” value [4, 11] of the same compound?
**A.** Its value is 95%.

**Q.** And the “Inhibition % of Control” value [4, 12]?
**A.** Its value is 75%.

**Q.** What about the “Inhibition % of Control” value [4, 13] of the same compound?
**A.** Its value is 88%.

**Q.** And the “Inhibition % of Control” value [4, 14]?
**A.** The value was 66%.

**Q.** What about the “Inhibition % of Control” value [4, 15] of the same compound?
**A.** Its value is 30%.

**Q.** What about the “Inhibition % of Control” value [4, 16] of the same compound?
**A.** Its value is 55%.

**Q.** And the “Inhibition % of Control” value [4, 17]?
**A.** Its value is 16%.

**Q.** What about the “Inhibition % of Control” value [4, 18] of the same compound?
**A.** Its value is 7%.

**Q.** How did the “P24 output, Inhibition% of the control” value [1] turn out when `O=C(CO)N[C@H]1[C@H]([C@H](O)[C@H](O)CO)OC(O)(C(=O)O)C[C@@H]1O` (single isomer, unassigned) [2B, N-glycolylneuraminic acid] was run?
**A.** The value was 93%.

**Q.** What about the “Inhibition % of Control” value [2, 6] of the same compound?
**A.** The value was 88%.

**Q.** What about the “Inhibition % of Control” value [2, 7] of the same compound?
**A.** The value was 74%.

**Q.** What about the “Inhibition % of Control” value [2, 8] of the same compound?
**A.** The value was 59%.

**Q.** What about the “Inhibition % of Control” value [2, 9] of the same compound?
**A.** The value was 44%.

**Q.** What about the “Inhibition % of Control” value [2, 10] of the same compound?
**A.** Its value is 13%.

**Q.** And the “P24 output, Inhibition% of the control” value ([3]; Dilution 1:20)?
**A.** The value was 81%.

**Q.** What about the “P24 output, Inhibition% of the control” value ([3]; Dilution 1:40) of the same compound?
**A.** Its value is 61%.

**Q.** And the “P24 output, Inhibition% of the control” value ([3]; Dilution 1:80)?
**A.** Its value is 37%.

**Q.** What about the “P24 output, Inhibition% of the control” value ([3]; Dilution 1:160) of the same compound?
**A.** The value was 16%.

**Q.** What about the “Inhibition % of Control” value [4, 11] of the same compound?
**A.** The value was 82%.

**Q.** What about the “Inhibition % of Control” value [4, 12] of the same compound?
**A.** The value was 70%.

**Q.** What about the “Inhibition % of Control” value [4, 13] of the same compound?
**A.** Its value is 78%.

**Q.** What about the “Inhibition % of Control” value [4, 14] of the same compound?
**A.** Its value is 61%.

**Q.** What about the “Inhibition % of Control” value [4, 15] of the same compound?
**A.** Its value is 26%.

**Q.** And the “Inhibition % of Control” value [4, 16]?
**A.** The value was 42%.

**Q.** And the “Inhibition % of Control” value [4, 17]?
**A.** The value was 15%.

**Q.** And the “Inhibition % of Control” value [4, 18]?
**A.** The value was 1%.

**Q.** What does the source list for `OC[C@H]1O[C@H](O[C@H]2[C@@H](O)[C@@H](CO)OC(O)[C@@H]2O)[C@H](O)[C@@H](O)[C@H]1O` (stereo partly drawn) [3AA, galactose-α 1,3-galactose]?
**A.** P24 output, Inhibition% of the control [1]: 4.3%; P24 output, Inhibition% of the control ([3]; Dilution 1:20): 3.6%; P24 output, Inhibition% of the control ([3]; Dilution 1:40): 2.2%; P24 output, Inhibition% of the control ([3]; Dilution 1:80): 1.4%; P24 output, Inhibition% of the control ([3]; Dilution 1:160): 0.4%

**Q.** Which results are given for `CC(=O)N[C@H]1[C@H]([C@H](O)[C@H](O)CO)OC(O)(C(=O)O)C[C@@H]1O` (some centres unmarked) [N-acetylneuraminic acid, reference compound]?
**A.** RT Activity ([5]; 0.4 µg/ml, 3 days PI): 89; RT Activity ([5]; 0.4 µg/ml, 6 days PI): 129; RT Activity ([5]; 0.4 µg/ml, 9 days PI): 878; RT Activity ([5]; 0.4 µg/ml, 13 days PI): 2703; RT Activity ([5]; 0.4 µg/ml, 17 days PI): 1615; RT Activity ([5]; 0.4 µg/ml, 20 days PI): 812; RT Activity ([5]; 3.6 µg/ml, 3 days PI): 83; RT Activity ([5]; 3.6 µg/ml, 6 days PI): 508; RT Activity ([5]; 3.6 µg/ml, 9 days PI): 1902; RT Activity ([5]; 3.6 µg/ml, 13 days PI): 1892; RT Activity ([5]; 3.6 µg/ml, 17 days PI): 1260; RT Activity ([5]; 3.6 µg/ml, 20 days PI): 836; RT Activity ([5]; 11 µg/ml, 3 days PI): 43; RT Activity ([5]; 11 µg/ml, 6 days PI): 75; RT Activity ([5]; 11 µg/ml, 9 days PI): 799; RT Activity ([5]; 11 µg/ml, 13 days PI): 2047; RT Activity ([5]; 11 µg/ml, 17 days PI): 2990; RT Activity ([5]; 11 µg/ml, 20 days PI): 1171; RT Activity ([5]; 33 µg/ml, 3 days PI): 36; RT Activity ([5]; 33 µg/ml, 6 days PI): 53; RT Activity ([5]; 33 µg/ml, 9 days PI): 165; RT Activity ([5]; 33 µg/ml, 13 days PI): 442; RT Activity ([5]; 33 µg/ml, 17 days PI): 1273; RT Activity ([5]; 33 µg/ml, 20 days PI): 1526; RT activity in treated cells (summary in words) ([5]; all dilutions/concentrations, 3-20 days PI): decreased RT activity was observed only with high concentrations

**Q.** Which “P24 output, Inhibition% of the control” value [1] does the source give for d-Galactose [1A] here?
**A.** Its value is 4%.

**Q.** What about the “P24 output, Inhibition% of the control” value ([3]; Dilution 1:20) of the same compound?
**A.** The value was 5%.

**Q.** And the “P24 output, Inhibition% of the control” value ([3]; Dilution 1:40)?
**A.** Its value is 4%.

**Q.** And the “P24 output, Inhibition% of the control” value ([3]; Dilution 1:80)?
**A.** Its value is 2%.

**Q.** What about the “P24 output, Inhibition% of the control” value ([3]; Dilution 1:160) of the same compound?
**A.** The value was 2%.

**Q.** What does the source list for d-Galactose [1B]?
**A.** P24 output, Inhibition% of the control [1]: 7%; P24 output, Inhibition% of the control ([3]; Dilution 1:20): 5%; P24 output, Inhibition% of the control ([3]; Dilution 1:40): 3%; P24 output, Inhibition% of the control ([3]; Dilution 1:80): 4%; P24 output, Inhibition% of the control ([3]; Dilution 1:160): 2%
